For this assay, the target named is Beta-galactosidase (Escherichia coli, UniProt Q8VNN2). The assay can be described thus: Competitive inhibition of Escherichia coli beta-galactosidase assessed as p-nitrophenyl-beta-D-galactopyranoside substrate hydrolysis by UV/Vis spectroscopy.
Sequence of Beta-galactosidase (Q8VNN2 whole entry): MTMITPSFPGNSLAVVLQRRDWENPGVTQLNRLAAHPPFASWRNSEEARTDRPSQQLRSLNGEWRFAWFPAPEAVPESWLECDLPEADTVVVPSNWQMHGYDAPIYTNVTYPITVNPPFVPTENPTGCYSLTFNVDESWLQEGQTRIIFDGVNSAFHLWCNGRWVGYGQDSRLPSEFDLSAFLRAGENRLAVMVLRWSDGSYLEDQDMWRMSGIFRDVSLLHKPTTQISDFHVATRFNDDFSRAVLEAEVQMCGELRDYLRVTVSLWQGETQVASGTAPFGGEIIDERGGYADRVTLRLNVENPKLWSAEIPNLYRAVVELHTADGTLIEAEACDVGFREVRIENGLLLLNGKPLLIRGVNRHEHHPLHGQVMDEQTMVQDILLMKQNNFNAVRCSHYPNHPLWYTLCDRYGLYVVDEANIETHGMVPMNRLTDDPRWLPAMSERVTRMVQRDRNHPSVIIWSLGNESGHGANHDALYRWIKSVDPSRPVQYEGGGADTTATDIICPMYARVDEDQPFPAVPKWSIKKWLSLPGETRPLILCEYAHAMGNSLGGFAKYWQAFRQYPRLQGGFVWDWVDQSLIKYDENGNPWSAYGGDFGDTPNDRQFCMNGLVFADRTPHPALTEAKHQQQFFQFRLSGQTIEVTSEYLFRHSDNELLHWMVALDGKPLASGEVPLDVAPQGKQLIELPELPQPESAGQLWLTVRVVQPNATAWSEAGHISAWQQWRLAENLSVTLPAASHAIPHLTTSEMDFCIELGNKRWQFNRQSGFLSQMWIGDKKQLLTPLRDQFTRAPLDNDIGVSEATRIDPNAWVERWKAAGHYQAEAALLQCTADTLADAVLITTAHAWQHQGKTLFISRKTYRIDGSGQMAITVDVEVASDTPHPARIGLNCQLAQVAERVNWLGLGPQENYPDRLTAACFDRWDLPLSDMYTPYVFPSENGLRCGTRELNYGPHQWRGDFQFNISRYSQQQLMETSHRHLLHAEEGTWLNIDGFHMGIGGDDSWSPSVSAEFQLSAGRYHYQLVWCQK

Usually Ki stands for the dissociation constant of the complex between target and ligand, obtained from inhibition or displacement. Regarding `Cc1ccc(C/N=C2\N[C@H](CO)[C@H](O)[C@H](O)[C@H]2O)cc1`, the inhibition constant Ki was 0.06 nM.
As for `Cc1ccc(CNC2=N[C@H](CO)[C@H](O)[C@H](O)C2)cc1`, the Ki stood at 1.3 nM.
For the molecule `CO[C@@H]1[C@H](O)[C@@H](O)C(NCc2ccc(C)cc2)=N[C@@H]1CO`, the Ki amounted to 32 nM.
Regarding `CO[C@H]1C(NCc2ccc(C)cc2)=N[C@H](CO)[C@H](O)[C@@H]1O`, the inhibition constant Ki stood at 42 nM.

(Values after ChEMBL document CHEMBL3751673, “Illuminating the binding interactions of galactonoamidines during the inhibition of β-galactosidase (E. coli)” (Bioorg Med Chem, 2016).)
